According to patent publication US20260042755A1, “GPR6 INVERSE AGONISTS” (MapLight Therapeutics, Inc., priority 2022, published 2026):

Legend:
GPR6 = target: T1, GPR6 (Homo sapiens, UniProt P46095); test: GPR6 antagonist functional cAMP assay (LANCE Ultra cAMP TR-FRET, CHO cells stably expressing GPR6); type: cell-based
T1 construct: expressed in transfected cells; host or cells: CHO cells
Outline: (§1)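 Suspended cells were plated at 10,000 per well in Krebs-Ringer bicarbonate buffer containing 0.1% BSA and 150 μM Ro 20-1724, then treated with compounds for 45 min at 37 °C. Intracellular cAMP was then quantified by TR-FRET immunoassay.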

GPR3 = target: T2, GPR3 (Homo sapiens, UniProt P46089); test: GPR3 antagonist functional cAMP assay (LANCE Ultra cAMP TR-FRET, CHO cells stably expressing GPR3); type: cell-based
T2 construct: expressed in transfected cells; host or cells: CHO cells
T2 sequence (P46089 whole entry, species assumed): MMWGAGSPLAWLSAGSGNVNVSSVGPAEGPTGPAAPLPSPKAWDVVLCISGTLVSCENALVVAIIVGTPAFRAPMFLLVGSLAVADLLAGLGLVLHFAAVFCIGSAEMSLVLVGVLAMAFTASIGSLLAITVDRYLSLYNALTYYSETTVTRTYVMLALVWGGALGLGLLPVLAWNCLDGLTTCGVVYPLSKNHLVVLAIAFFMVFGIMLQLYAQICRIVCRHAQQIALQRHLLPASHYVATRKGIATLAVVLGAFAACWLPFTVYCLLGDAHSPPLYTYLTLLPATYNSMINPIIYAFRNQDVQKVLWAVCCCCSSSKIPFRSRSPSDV
Outline: as §1

[1] = CHO cells stably expressing GPR6, cAMP assay (Example 24)
[2] = CHO cells stably expressing GPR3, cAMP assay (Example 24)
[3] = procedure as described in Example 24
[4] = CHO cells stably expressing GPR6, cAMP assay
[5] = CHO cells stably expressing GPR3, cAMP assay

T1 sequence (P46095 whole entry): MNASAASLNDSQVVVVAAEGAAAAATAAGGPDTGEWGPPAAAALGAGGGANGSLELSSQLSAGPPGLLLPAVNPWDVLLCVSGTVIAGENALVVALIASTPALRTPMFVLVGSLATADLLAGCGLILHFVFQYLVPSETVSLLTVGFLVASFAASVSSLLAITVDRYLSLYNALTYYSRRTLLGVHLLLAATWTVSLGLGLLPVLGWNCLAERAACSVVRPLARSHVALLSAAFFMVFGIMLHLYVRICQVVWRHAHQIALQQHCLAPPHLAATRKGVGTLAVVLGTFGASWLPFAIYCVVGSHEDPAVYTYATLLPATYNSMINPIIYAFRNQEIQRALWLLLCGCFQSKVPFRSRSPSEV

| IC50 (GPR6; procedure of Example 24) [nM] | IC50 (GPR3; procedure of Example 24) [µM] | IC50 (GPR6; [1]) [nM] | IC50 (GPR3; [2]) [µM] | Compound | further results |
| --- | --- | --- | --- | --- | --- |
|  |  | 100 to 1000 | 1 to 30 | CC(=O)N1CCc2nc(N3CCC(Oc4ccc(F)cc4F)CC3)c(-c3cnn(-c4ccccc4)c3)nc2C1 [Compound 76, 1-{2-[4-(2,4-difluorophenoxy)piperidin-1-yl]-3-(1-phenyl-1H-pyrazol-4-yl)-5H,6H,7H,8H-pyrido[3,4-b]pyrazin-6-yl}ethan-1-one] |  |
| < 100 | 1 to 30 |  |  | CCn1cc(-c2nc3c(nc2N2CCC(Oc4ccc(F)cc4F)CC2)CCN(C(=O)C2CCCN2)C3)cn1 (centres unmarked) [Compound 291, 4-(2,4-difluorophenoxy)-1-[3-(1-ethyl-1H-pyrazol-4-yl)-6-(pyrrolidine-2-carbonyl)-5H,6H,7H,8H-pyrido[3,4-b]pyrazin-2-yl]piperidine] |  |
| 1000 to 30000 | 1 to 30 |  |  | CC(=O)N1CCc2nc(N3CCN(Cc4ccccc4)CC3)c(-c3cnn(C)c3)nc2C1 [Compound 280, 1-[2-(4-benzylpiperazin-1-yl)-3-(1-methyl-1H-pyrazol-4-yl)-5H,6H,7H,8H-pyrido[3,4-b]pyrazin-6-yl]ethan-1-one] |  |
| ≥ 30000 | ≥ 30 |  |  | COc1ccc(C(=O)N2CCN(c3nc4c(nc3-c3cnn(C)c3)CN(C(C)=O)CC4)CC2)cc1F [Compound 282, 1-{2-[4-(3-fluoro-4-methoxybenzoyl)piperazin-1-yl]-3-(1-methyl-1H-pyrazol-4-yl)-5H,6H,7H,8H-pyrido[3,4-b]pyrazin-6-yl}ethan-1-one] |  |
|  |  | 1000 to 30000 | 1 to 30 | CNC(=O)N1CCc2nc(N3CCC(Oc4ccc(F)cc4F)CC3)c(-c3cnn(C4CCCCO4)c3)nc2C1 (centres unmarked) [Compound 181, 2-[4-(2,4-difluorophenoxy)piperidin-1-yl]-N-methyl-3-[1-(oxan-2-yl)-1H-pyrazol-4-yl]-5H,6H,7H,8H-pyrido[3,4-b]pyrazine-6-carboxamide] |  |
|  |  | 1000 to 30000 | 1 to 30 | CN1CCc2nc(N3CCC(Oc4ccc(F)cc4F)CC3)c(-c3cn[nH]c3)nc2C1 [Compound 139, 4-(2,4-difluorophenoxy)-1-[6-methyl-3-(1H-pyrazol-4-yl)-5H,6H,7H,8H-pyrido[3,4-b]pyrazin-2-yl]piperidine] |  |
| 1000 to 30000 | ≥ 30 |  |  | CC(=O)N1CCc2nc(N3CCN(C(=O)c4ccc(F)cc4C#N)CC3)c(-c3cnn(C)c3)nc2C1 [Compound 286, 2-{4-[6-acetyl-3-(1-methyl-1H-pyrazol-4-yl)-5H,6H,7H,8H-pyrido[3,4-b]pyrazin-2-yl]piperazine-1-carbonyl}-5-fluorobenzonitrile] |  |
|  |  | 100 to 1000 | 1 to 30 | CC(=O)N1Cc2nc(-c3cnn(C)c3)c(N3CCC(Oc4ccc(F)cc4F)CC3)nc2CC1C (centres unmarked) [Compound 394, 1-{2-[4-(2,4-difluorophenoxy)piperidin-1-yl]-7-methyl-3-(1-methyl-1H-pyrazol-4-yl)-5H,6H,7H,8H-pyrido[3,4-b]pyrazin-6-yl}ethan-1-one] |  |

The next lines start with the compound.

| Compound | IC50 (GPR6; procedure of Example 24) [nM] | IC50 (GPR3; procedure of Example 24) [µM] | IC50 (GPR6; [1]) [nM] | IC50 (GPR3; [2]) [µM] | further results |
| --- | --- | --- | --- | --- | --- |
| CC(C)(O)[C@@](C)(O)c1cc2nc(-c3cnn(C4CC4)c3)c(N3CCN(Cc4ccc(F)cc4F)CC3)nc2cn1 (single isomer, unassigned) [Compound 682] | < 100 | 1 to 30 |  |  |  |
| CC(C)(O)[C@@H](O)c1cc2nc(-c3cnn(CF)c3)c(N3CCN(Cc4cc(F)ccc4F)CC3)nc2cn1 (single isomer, unassigned) [Compound 724] | 100 to 1000 | 1 to 30 |  |  |  |
| Cn1cc(-c2nc3cnccc3nc2N2CCN(CC3CCCOC3)CC2)cn1 (centres unmarked) [Compound 241, 1-[3-(1-methyl-1H-pyrazol-4-yl)pyrido[3,4-b]pyrazin-2-yl]-4-[(oxan-3-yl)methyl]piperazine] |  |  | ≥ 30000 | ≥ 30 |  |
| CC(=O)N1CCc2nc(N3CCC(Oc4ccc(F)cc4F)CC3)c(-c3cnn(CCF)c3)nc2C1 [Compound 16, 1-{2-[4-(2,4-difluorophenoxy)piperidin-1-yl]-3-[1-(2-fluoroethyl)-1H-pyrazol-4-yl]-5H,6H,7H,8H-pyrido[3,4-b]pyrazin-6-yl}ethan-1-one] |  |  |  |  | IC50 (GPR6; [3]): 100 to 1000 nM; IC50 (GPR3; [3]): 1 to 30 µM |
| CC(=O)N1CCc2nc(N3CCC(Oc4ccc(F)cc4F)CC3)c(-c3cn[nH]c3C(C)C)nc2C1 [Compound 31, 1-{2-[4-(2,4-difluorophenoxy)piperidin-1-yl]-3-[5-(propan-2-yl)-1H-pyrazol-4-yl]-5H,6H,7H,8H-pyrido[3,4-b]pyrazin-6-yl}ethan-1-one] |  |  |  |  | IC50 (GPR6; [3]): 1000 to 30000 nM; IC50 (GPR3; [3]): 1 to 30 µM |
| CC(C)n1cc(-c2nc3cnc(C(O)C(C)(C)O)cc3nc2N2CCN(Cc3ccc(F)cc3F)CC2)cn1 (centres unmarked) [Compound 298, 1-(2-{4-[(2,4-difluorophenyl)methyl]piperazin-1-yl}-3-[1-(propan-2-yl)-1H-pyrazol-4-yl]pyrido[3,4-b]pyrazin-7-yl)-2-methylpropane-1,2-diol] | 100 to 1000 | 1 to 30 |  |  |  |
| COc1cccc(-c2nc3cnccc3nc2N2CC3(CC(Oc4ccc(F)cc4F)C3)C2)n1 [Compound 104, 6-(2,4-difluorophenoxy)-2-[3-(6-methoxypyridin-2-yl)pyrido[3,4-b]pyrazin-2-yl]-2-azaspiro[3.3]heptane] |  |  | 1000 to 30000 | 1 to 30 |  |
| CCn1cc(-c2nc3cnc(C(C)(O)C(C)(C)O)cc3nc2N2CCN(Cc3ccc(F)cc3F)CC2)cn1 (centres unmarked) [Compound 654, 2-(2-{4-[(2,4-difluorophenyl)methyl]-1-piperazinyl}-3-(1-ethyl-4-pyrazolyl)-1,4,6-triaza-7-naphthyl)-3-methyl-2,3-butanediol] | 100 to 1000 | 1 to 30 |  |  |  |
| COc1cncc(-c2nc3cnc(Cl)cc3nc2N2CCN(Cc3ccc(F)cc3F)CC2)n1 [Compound 159, 2-(7-chloro-2-{4-[(2,4-difluorophenyl)methyl]piperazin-1-yl}pyrido[3,4-b]pyrazin-3-yl)-6-methoxypyrazine] |  |  | 1000 to 30000 | 1 to 30 |  |
| CCn1cc(-c2nc3cc(C(O)C(C)(C)O)ncc3nc2N2CCC(Oc3ccc(F)cc3F)CC2)cn1 (single isomer, unassigned) [Compound 589] |  |  |  |  | IC50 (GPR6; [4]): < 100 nM; IC50 (GPR3; [5]): 0.1 to 1 µM |
| COC(=O)c1cc2nc(N3CCC(Oc4ccc(F)cc4F)CC3)c(-c3cncc(OC)n3)nc2cn1 [Compound 221, methyl 2-[4-(2,4-difluorophenoxy)piperidin-1-yl]-3-(6-methoxypyrazin-2-yl)pyrido[3,4-b]pyrazine-7-carboxylate] |  |  | 1000 to 30000 | 1 to 30 |  |
| Fc1ccc(OC2CCN(c3nc4ccncc4nc3-c3ncc[nH]3)CC2)c(F)c1 [Compound 41, 4-(2,4-difluorophenoxy)-1-[3-(1H-imidazol-2-yl)pyrido[3,4-b]pyrazin-2-yl]piperidine] |  |  |  |  | IC50 (GPR6; [3]): 1000 to 30000 nM; IC50 (GPR3; [3]): 1 to 30 µM |
| COc1cncc(-c2nc3cnc(C(O)C(C)(C)O)cc3nc2N2CCN(Cc3ccc(F)cc3F)CC2)n1 (single isomer, unassigned) [Compound 94, 1-(2-(4-(2,4-difluorobenzyl)piperazin-1-yl)-3-(6-methoxypyrazin-2-yl)pyrido[3,4-b]pyrazin-7-yl)-2-methylpropane-1,2-diol] |  |  | 1000 to 30000 | 1 to 30 |  |
| CC(=O)OC1CCN(c2nc3c(nc2-c2cnn(C)c2)CN(Cc2ccccc2)CC3)C1 (centres unmarked) [Compound 495, 1-[6-benzyl-3-(1-methyl-4-pyrazolyl)-5,6,7,8-tetrahydro-1,4,6-triaza-2-naphthyl]-3-pyrrolidinyl acetate] |  |  |  |  | IC50 (GPR6; [4]): 1000 to 30000 nM; IC50 (GPR3; [5]): ≥ 30 µM |
